What all share (format): cell-based
For one assay, the system named is HTT AJ mRNA. Nature of the assay: Splicing assay (RT-qPCR): increase in HTT alternative junction (AJ) mRNA. To be noted: A673 or K562 cells, 24 hours treatment; concentration having 50% response in AJ mRNA increase. As for the experimental part: (§1) Compounds described herein were used to modulate RNA transcript abundance in cells. The expression of a target mRNA was measured by detecting the formation of an exon-exon junction in the canonical transcript (CJ). A compound mediated exon-inclusion event was detected by observing an increase in formation of a new junction with an alternative exon (AJ). Real-time qPCR assays were used to detect these splicing switches and interrogate the potency of various compounds towards different target genes. A high-throughput real time quantitative PCR (RT-qPCR) assay was developed to measure these two isoforms of the mRNA (CJ and AJ) for an exemplary gene, HTT, together with a control housekeeping gene, GAPDH or GUSB or PPIA, used for normalization. Briefly, the A673 or K562 cell line was treated with various compounds described herein (e.g., compounds of Formula (I)). After treatment, the levels of the HTT mRNA targets were determined from each sample of cell lysate by cDNA synthesis followed by qPCR.
(§2) The A673 cell line was cultured in DMEM with 10% FBS. Cells were diluted with full growth media and plated in a 96-well plate (15,000 cells in 100 ul media per well). The plate was incubated at 37° C. with 5% CO2 for 24 hours to allow cells to adhere. An 11-point 3-fold serial dilution of the compounds was made in DMSO then diluted in media in an intermediate plate. Compounds were transferred from the intermediate plate to the cell plate with the top dose at a final concentration of 10 uM in the well. Final DMSO concentration was kept at or below 0.25%. The cell plate was returned to the incubator at 37° C. with 5% CO2 for an additional 24 hours.
(§3) The K562 cell line was cultured in IMDM with 10% FBS. For K562, cells were diluted with full growth media and plated in either a 96-well plate (50,000 cells in 50 uL media per well) or a 384-well plate (8,000-40,000 cells in 45 uL media per well). An 11-point 3-fold serial dilution of the compounds were made in DMSO then diluted in media in an intermediate plate. Compound was transferred from the intermediate plate to the cell plate with the top dose at a final concentration of 10 uM in the well. Final DMSO concentration was kept at or below 0.25%. Final volume was 100 uL for 96-well plate and 50 uL for 384-well plate. The cell plate was then placed in an incubator at 37° C. with 5% CO2 for 24 hours.
(§4) The cells were then gently washed with 50 uL-100 uL cold PBS before proceeding to addition of lysis buffer. 30 uL-50 uL of room temperature lysis buffer with DNAse I (and optionally RNAsin) was added to each well. Cells were shaken/mixed thoroughly at room temperature for 5-10 minutes for lysis to take place and then 3 uL-5 uL of room temperature stop solution was added and wells were shaken/mixed again. After 2-5 minutes, the cell lysate plate was transferred to ice for RT-qPCR reaction setup. The lysates could also be frozen at −80° C. for later use.
(§5) In some cases, a direct lysis buffer was used. An appropriate volume of 3× lysis buffer (10 mM Tris, 150 mM NaCl, 1.5%-2.5% Igepal and 0.1-1 U/uL RNAsin, pH 7.4) was directly added to either K562 or A673 cells in media and mixed by pipetting 3 times. The plates were then incubated at room temperature with shaking/rocking for 20-50 minutes to allow for lysis to take place. After this time, the cell lysate plate was transferred to ice to set up for the RT-qPCR reactions. The lysates could also be frozen at −80° C. for later use.
(§6) To set up 10 uL RT-qPCR reactions, cell lysates were transferred to 384-well qPCR plates containing the master mix according to the table below. The plates were sealed, gently vortexed, and spun down before the run. The volumes were adjusted accordingly in some instances where the reaction was carried in 20 uL. The table below summarizes the components of the RT-qPCR reactions:
(§7) The RT-qPCR reaction was performed using a QuantStudio (ThermoFisher) under the following fast cycling conditions. […]

Assay [1] has as its system HTT CJ mRNA. Nature of the assay: Splicing assay (RT-qPCR): decrease in HTT canonical junction (CJ) mRNA. To be noted: A673 or K562 cells, 24 hours treatment; concentration having 50% response in CJ mRNA decrease. As for the experimental part:
as §1, §2, §3, §4, §5, §6, §7
For orientation: Real-time PCR tracks product formation cycle by cycle.

The test system of assay [2] is HTT CJ mRNA. Nature of the assay: Gene panel canonical junction qPCR assay: HTT. To be noted: Table 3, concentration having 50% response in CJ decrease, read-out: HTT IC50 (decrease in CJ mRNA levels). As for the experimental part: as §1, §2, §3, §4, §5, §6, §7
For a further assay, the system named is SMN2 CJ mRNA. Nature of the assay: Gene panel canonical junction qPCR assay: SMN2. To be noted: Table 3, concentration having 50% response in CJ decrease, read-out: SMN2 IC50 (decrease in CJ mRNA levels). As for the experimental part:
as §1, §2, §3, §4, §5, §6, §7

A further assay relates to Target C CJ mRNA. Briefly: Gene panel canonical junction qPCR assay: Target C. To be noted: Table 3, concentration having 50% response in CJ decrease, read-out: Target C IC50 (decrease in CJ mRNA levels). As for the experimental part: as §1, §2, §3, §4, §5, §6, §7

From patent US20230142338A1, “THIOPHENYL DERIVATIVES USEFUL FOR MODULATING NUCLEIC ACID SPLICING” (REMIX THERAPEUTICS INC., priority 2020, published 2023) come the findings set out here.

What is called AC50 is the midpoint of the concentration-response curve, whichever way the signal moves. A lower AC50 goes with greater potency. One may read the IC50 as the concentration needed to halve the response being measured.

As for `Cc1cn2nc(NC(=O)c3sc([C@@H]4CCN[C@H](C)C4)cc3F)cc(C)c2n1` [Compound 101, N-[2,8-dimethylimidazo[1,2-b]pyridazin-6-yl]-3-fluoro-5-[(2R,4R)-2-methylpiperidin-4-yl] thiophene-2-carboxamide], the AC50 with HTT AJ mRNA and in the assay on HTT CJ mRNA [1] was 0.1 to 1 µM each time. Besides, the IC50 with HTT CJ mRNA [2] was 0.1 to 1 µM; in the assay with SMN2 CJ mRNA, less than 0.1 µM; in the assay on Target C CJ mRNA, 0.1 to 1 µM.

Take `Cc1cn2nc(NC(=O)c3sc([C@H]4CCN[C@@H](C)C4)cc3F)cc(C)c2n1` [Compound 102, N-[2,8-dimethylimidazo[1,2-b]pyridazin-6-yl]-3-fluoro-5-[(2S,4S)-2-methylpiperidin-4-yl] thiophene-2-carboxamide]: the AC50 in the assay on HTT AJ mRNA lay in the range of 1 to 10 µM; in the assay on HTT CJ mRNA [1] it was 0.1 to 1 µM. Besides, the IC50 in the assay with HTT CJ mRNA [2] is 0.1 to 1 µM; with SMN2 CJ mRNA, 0.1 to 1 µM; in the assay on Target C CJ mRNA, 1 to 10 µM.

Consider `Cc1cn2nc(NC(=O)c3sc([C@H]4CCN[C@H](C)C4)cc3F)cc(C)c2n1` [Compound 103, N-[2,8-dimethylimidazo[1,2-b]pyridazin-6-yl]-3-fluoro-5-[(2R,4S)-2-methylpiperidin-4-yl] thiophene-2-carboxamide], for which the AC50 in the assay with HTT AJ mRNA and with HTT CJ mRNA [1] was 0.1 to 1 µM throughout. Also, the IC50 in the assay with HTT CJ mRNA [2] is 0.1 to 1 µM; in the assay on SMN2 CJ mRNA it was less than 0.1 µM; with Target C CJ mRNA, 1 to 10 µM.

On to `Cc1cn2nc(NC(=O)c3sc([C@@H]4CCN[C@@H](C)C4)cc3F)cc(C)c2n1` [Compound 104, N-[2,8-dimethylimidazo[1,2-b]pyridazin-6-yl]-3-fluoro-5-[(2S,4R)-2-methylpiperidin-4-yl]thiophene-2-carboxamide], for which the values for the AC50 in the assay on HTT AJ mRNA and with HTT CJ mRNA [1] were 0.1 to 1 µM and less than 0.1 µM, respectively. In addition, the IC50 in the assay with HTT CJ mRNA [2] was less than 0.1 µM; in the assay on SMN2 CJ mRNA, less than 0.1 µM; with Target C CJ mRNA it was 0.1 to 1 µM.

Regarding `Cc1cn2cc(-c3cc(F)c(C(=O)NC4CCN(C)CC4)s3)nc2c(C)n1` [Compound 109, 5-[6,8-dimethylimidazo[1,2-a]pyrazin-2-yl]-3-fluoro-N-(1-methylpiperidin-4-yl)thiophene-2-carboxamide], the AC50 with HTT AJ mRNA is greater than 10 µM; in the assay with HTT CJ mRNA [1], 1 to 10 µM.

For the molecule `Cc1cn2cc(-c3cc(F)c(C(=O)N[C@H]4CCN[C@@H](C)C4)s3)nc2c(C)n1` [Compound 112], the AC50 in the assay on HTT AJ mRNA and with HTT CJ mRNA [1] was greater than 10 µM throughout.

As to `Cc1cn2cc(-c3cc(F)c(C(=O)N[C@H]4CCN[C@H](C)C4)s3)nc2c(C)n1` [Compound 113], the AC50 in the assay on HTT AJ mRNA was greater than 10 µM; with HTT CJ mRNA [1] it was 0.1 to 1 µM.

Turning to `Cc1cn2cc(NC(=O)c3sc([C@@H]4CCN[C@H](C)C4)cc3F)cc(F)c2n1` [Compound 114, 3-fluoro-N-[8-fluoro-2-methylimidazo[1,2-a]pyridin-6-yl]-5-[(2R,4R)-2-methylpiperidin-4-yl]thiophene-2-carboxamide], the AC50 in the assay on HTT AJ mRNA and with HTT CJ mRNA [1] was 0.1 to 1 µM each time. The IC50 was 0.1 to 1 µM with HTT CJ mRNA [2], less than 0.1 µM in the assay on SMN2 CJ mRNA and 1 to 10 µM in the assay with Target C CJ mRNA.

As to `Cc1cn2cc(NC(=O)c3sc([C@H]4CCN[C@@H](C)C4)cc3F)cc(F)c2n1` [Compound 115, 3-fluoro-N-[8-fluoro-2-methylimidazo[1,2-a]pyridin-6-yl]-5-[(2S,4S)-2-methylpiperidin-4-yl]thiophene-2-carboxamide], the AC50 in the assay on HTT AJ mRNA and with HTT CJ mRNA [1] was 0.1 to 1 µM throughout. Also, the IC50 with HTT CJ mRNA [2] and with SMN2 CJ mRNA was 0.1 to 1 µM in each case.

In the case of `Cc1cn2cc(NC(=O)c3ccc(N4CCNC(C)C4)s3)cc(F)c2n1` (centres unmarked) [Compound 122, N-[8-fluoro-2-methylimidazo[1,2-a]-pyridin-6-yl]-5-(3-methylpip-erazin-1-yl)-thiophene-2-carboxamide], the half-maximal activity concentration (AC50) in the assay on HTT AJ mRNA and in the assay with HTT CJ mRNA [1] was greater than 10 µM throughout. Also, the IC50 was greater than 0.01 µM in the assay with HTT CJ mRNA [2] and 0.1 to 1 µM with SMN2 CJ mRNA.

As to `Cc1cn2cc(NC(=O)c3sc(N4CCNCC4)cc3F)cc(F)c2n1` [Compound 126, 3-fluoro-N-[8-fluoro-2-methylimidazo[1,2-a]pyridin-6-yl]-5-(piperazin-1-yl)thiophene-2-carboxamide], the AC50 with HTT AJ mRNA and with HTT CJ mRNA [1] was 1 to 10 µM in each case. Also, the IC50 was in the range of 1 to 10 µM in the assay with HTT CJ mRNA [2] and 0.1 to 1 µM in the assay on SMN2 CJ mRNA.

Regarding `Cc1cn2cc(NC(=O)c3sc(N4CCNC(C)C4)cc3F)cc(F)c2n1` (centres unmarked) [Compound 128, 3-fluoro-N-[8-fluoro-2-methylimidazo[1,2-a]pyridin-6-yl]-5-(3-methylpiperazin-1-yl)thiophene-2-carboxamide], the AC50 was greater than 10 µM with HTT AJ mRNA and 1 to 10 µM with HTT CJ mRNA [1]. The IC50 in the assay on HTT CJ mRNA [2] fell in the range of 1 to 10 µM; in the assay on SMN2 CJ mRNA, 0.1 to 1 µM.

`CCC1CN(c2cc(F)c(C(=O)Nc3cc(F)c4nc(C)cn4c3)s2)CCN1` (centres unmarked) [Compound 130, 5-(3-ethylpiperazin-1-yl)-3-fluoro-N-[8-fluoro-2-methylimidazo[1,2-a]pyridin-6-yl]thiophene-2-carboxamide]: the AC50 in the assay with HTT AJ mRNA is greater than 10 µM; in the assay on HTT CJ mRNA [1], 1 to 10 µM.

Take `Cc1cn2cc(NC(=O)c3sc(N4CC5(CN(C)C5)C4)cc3F)cc(F)c2n1` [Compound 135, 3-fluoro-N-[8-fluoro-2-methylimidazo[1,2-a]pyridin-6-yl]-5-[6-methyl-2,6-diazaspiro[3.3]heptan-2-yl]thiophene-2-carboxamide]: the AC50 with HTT AJ mRNA is greater than 10 µM; in the assay on HTT CJ mRNA [1], 1 to 10 µM.

As to `Cc1cn2cc(NC(=O)c3sc(N4CCC(N(C)C)CC4)cc3F)cc(F)c2n1` [Compound 140, 5-[4-(dimethylamino)piperidin-1-yl]-3-fluoro-N-[8-fluoro-2-methylimidazo[1,2-a]pyridin-6-yl]thiophene-2-carboxamide], the AC50 lay within 0.1 to 1 µM with HTT AJ mRNA and 1 to 10 µM in the assay with HTT CJ mRNA [1].

On to `Cc1cn2cc(NC(=O)c3sc(C4CCNCC4)cc3F)cc(F)c2n1` [Compound 144, 3-fluoro-N-[8-fluoro-2-methylimidazo[1,2-a]pyridin-6-yl]-5-(piperidin-4-yl) thiophene-2-carboxamide], for which the AC50 in the assay with HTT AJ mRNA and with HTT CJ mRNA [1] was 0.1 to 1 µM in each case. The IC50 with HTT CJ mRNA [2] is 0.1 to 1 µM; in the assay with SMN2 CJ mRNA, less than 0.1 µM.

Turning to `Cc1cn2cc(NC(=O)c3sc(C4CC(C)(C)NC(C)(C)C4)cc3F)cc(F)c2n1` [Compound 148, 3-fluoro-N-[8-fluoro-2-methylimidazo[1,2-a]pyridin-6-yl]-5-(2,2,6,6-tetramethylpiperidin-4-yl)thiophene-2-carboxamide], the AC50 in the assay with HTT AJ mRNA and in the assay with HTT CJ mRNA [1] was 0.1 to 1 µM each time.

As to `Cc1cn2cc(NC(=O)c3sc(N4CCNC(C)C4)cc3F)nc2c(C)n1` (centres unmarked) [Compound 168, N-[6,8-dimethylimidazo[1,2-a]pyrazin-2-yl]-3-fluoro-5-(3-methylpiperazin-1-yl)thiophene-2-carboxamide], the AC50 is greater than 10 µM in the assay on HTT AJ mRNA and 1 to 10 µM in the assay on HTT CJ mRNA [1].

For `Cc1cn2cc(NC(=O)c3sc(N4CCNC(C)C4)c(Cl)c3Cl)cc(F)c2n1` (centres unmarked) [Compound 186], the AC50 in the assay with HTT AJ mRNA and in the assay on HTT CJ mRNA [1] was greater than 10 µM in each case. In addition, the IC50 was greater than 0.01 µM in the assay with HTT CJ mRNA [2] and 1 to 10 µM with SMN2 CJ mRNA.
